Here are results for 25 molecules from US20170334899A1, “AMINO-SUBSTITUTED ISOTHIAZOLES” (Bayer Pharma Aktiengesellschaft, priority 2014, published 2017).

Each structure is given as a SMILES string. Values joined by “and” are separate entries in the source; they are usually repeats but may differ in a detail not shown here. Identical values can stand only once.

The target of this assay is T1, human kinase Mps-1 (Homo sapiens, UniProt P33981).
T1 construct: N-terminally GST-tagged human full length recombinant Mps-1 kinase; GST (N); purchased Invitrogen, Karslruhe, Germany PV4071
T1 sequence (P33981 1-857): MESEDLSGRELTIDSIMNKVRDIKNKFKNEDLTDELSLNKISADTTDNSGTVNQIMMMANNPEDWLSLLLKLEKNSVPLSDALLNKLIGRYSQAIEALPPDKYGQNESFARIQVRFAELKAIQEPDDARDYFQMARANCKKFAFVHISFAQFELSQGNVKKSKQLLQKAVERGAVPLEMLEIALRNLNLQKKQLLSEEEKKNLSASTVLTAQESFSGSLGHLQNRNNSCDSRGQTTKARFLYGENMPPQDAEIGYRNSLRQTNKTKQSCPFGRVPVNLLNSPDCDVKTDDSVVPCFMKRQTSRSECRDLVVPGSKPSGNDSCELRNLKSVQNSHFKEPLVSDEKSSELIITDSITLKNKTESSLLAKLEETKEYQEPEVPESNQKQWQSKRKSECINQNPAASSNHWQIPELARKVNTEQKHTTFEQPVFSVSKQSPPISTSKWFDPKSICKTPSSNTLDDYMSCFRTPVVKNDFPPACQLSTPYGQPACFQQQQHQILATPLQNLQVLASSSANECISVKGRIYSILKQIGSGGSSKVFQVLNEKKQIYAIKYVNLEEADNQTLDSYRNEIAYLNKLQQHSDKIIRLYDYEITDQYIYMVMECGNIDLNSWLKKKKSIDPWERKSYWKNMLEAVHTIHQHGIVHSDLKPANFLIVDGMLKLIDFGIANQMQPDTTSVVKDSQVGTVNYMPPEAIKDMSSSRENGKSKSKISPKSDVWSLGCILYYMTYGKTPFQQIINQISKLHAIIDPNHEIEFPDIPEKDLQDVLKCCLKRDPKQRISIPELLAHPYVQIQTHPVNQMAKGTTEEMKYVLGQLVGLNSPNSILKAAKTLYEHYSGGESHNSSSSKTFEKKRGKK
The assay is described as follows: Mps-1 kinase assay (TR-FRET). The following applies: Mps-1 TR-FRET kinase assay; avg; read-out: Mps1 avg (IC50 [mol/l]). The class given is biochemical. The procedure, abridged: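 GST-tagged full-length recombinant human Mps-1 (~0.5 nM) pre-incubated 15 min with compound, then reacted 60 min at 22 °C with 10 μM ATP and 1 μM biotinylated peptide in Hepes pH 7.7 buffer. EDTA-stopped; TR-FRET (Eu anti-phospho-Ser/Thr to SA-XLent) 665/620 nm ratio normalised to no-inhibitor and no-enzyme controls.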
For `Cc1nsc(Nc2cnc3ccccc3n2)c1C(=O)Nc1cccc(C(=O)N2CCN(C(=O)OC(C)(C)C)CC2)c1` [Example 55, tert-Butyl 4-[3-({[3-methyl-5-(quinoxalin-2-ylamino)-1,2-thiazol-4-yl]carbonyl}amino)-benzoyl]piperazine-1-carboxylate], the IC50 was not below 20 µM.
Consider `COCCOc1ccc(NC(=O)c2c(C)nsc2Nc2nc3c(C(F)(F)F)cccc3s2)cn1` [Example 3, N-[6-(2-Methoxyethoxy)pyridin-3-yl]-3-methyl-5-{[4-(trifluoromethyl)-1,3-benzo-thiazol-2-yl]amino}-1,2-thiazole-4-carboxamide], for which the IC50 is not below 20 µM.
With `Cc1nsc(Nc2cnc3ccccc3n2)c1C(=O)Nc1cccc(NC(=O)C(F)(F)F)c1` [Example 432, 3-Methyl-5-(quinoxalin-2-ylamino)-N-{3-[(trifluoroacetyl)amino]phenyl}-1,2-thiazole-4-carboxamide] the figure was more than 20 µM; with `Cc1nsc(Nc2cnc(C(F)(F)F)cn2)c1C(=O)Nc1ccc(OCCN2CCC(F)(F)CC2)nc1` [Example 407, N-{6-[2-(4,4-Difluoropiperidin-1-yl)ethoxy]pyridin-3-yl}-3-methyl-5-{[5-(trifluoromethyl)pyrazin-2-yl]amino}-1,2-thiazole-4-carboxamide], more than 20 µM.
With `Cc1nsc(Nc2cnc(C(F)(F)F)cn2)c1C(=O)Nc1ccc(F)c(OCC2CCN(CC(F)(F)F)C2)c1` (stereo not shown) [Example 318, N-(4-fluoro-3-{[1-(2,2,2-trifluoroethyl)pyrrolidin-3-yl]methoxy}phenyl)-3-methyl-5-{[5-(trifluoromethyl)pyrazin-2-yl]amino}-1,2-thiazole-4-carboxamide], the IC50 is more than 20 µM.
Turning to `Cc1nsc(Nc2cnc3ccccc3n2)c1C(=O)Nc1ccc(OCCCNC(=O)OC(C)(C)C)nc1` [Example 42, tert-Butyl (3-{[5-({[3-methyl-5-(quinoxalin-2-ylamino)-1,2-thiazol-4-yl]carbonyl}-amino)pyridin-2-yl]oxy}propyl)carbamate], the IC50 was not below 20 µM.
Regarding `Cc1nsc(Nc2cnc(C(F)(F)F)cn2)c1C(=O)Nc1ccc(OCCN(C)C(=O)OC(C)(C)C)nc1` [Example 429, tert-Butyl methyl{2-[(5-{[(3-methyl-5-{[5-(trifluoromethyl)pyrazin-2-yl]amino}-1,2-thiazol-4-yl)carbonyl]amino}pyridin-2-yl)oxy]ethyl}carbannate], the IC50 is more than 20 µM.
Then `Cc1nsc(Nc2cnc3ccccc3n2)c1C(=O)Nc1cccc(C(=O)N[C@H](C(=O)OC(C)(C)C)[C@@H](C)OC(C)(C)C)c1` [Example 57, tert-Butyl O-tert-butyl-N-[3-({[3-methyl-5-(quinoxalin-2-ylamino)-1,2-thiazol-4 yl]carbonyl}amino)-benzoyl]threoninate], with not below 20 µM; and `Cc1nsc(Nc2cnc(C(F)(F)F)cn2)c1C(=O)Nc1ccc(OC2CCN(C(=O)OC(C)(C)C)CC2)nc1` [Example 5, tert-Butyl 4-[(5-{[(3-methyl-5-{[5-(trifluoromethyl)pyrazin-2-yl]amino}-1,2-thiazol-4-yl)carbonyl]amino}pyridin-2-yl)oxy]piperidine-1-carboxylate], with not below 20 µM.
Take `Cc1nsc(Nc2ccc(C#N)cn2)c1C(=O)Nc1ccc(OC2CCCN(CCF)C2)nc1` (stereo not shown) [Example 38, 5-[(5-Cyanopyridin-2-yl)amino]-N-(6-{[1-(2-fluoroethyl)piperidin-3-yl]oxy}pyridin-3-yl)-3-methyl-1,2-thiazole-4-carboxamide]: the IC50 was not below 20 µM.
Take `COCCOc1ccc(NC(=O)c2c(C)nsc2Nc2nc3c(C(F)(F)F)cccc3s2)cc1F` [Example 1, N-[3-Fluoro-4-(2-methoxyethoxy)phenyl]-3-methyl-5-{[4-(trifluoromethyl)-1,3-benzothiazol-2-yl]amino}-1,2-thiazole-4-carboxamide]: the IC50 was not below 20 µM.
`Cc1nsc(Nc2cnc(C(F)(F)F)cn2)c1C(=O)Nc1ccc(F)c(OCCCNC(=O)C(F)(F)F)c1` [Example 427, N-(4-Fluoro-3-{3-[(trifluoroacetyl)amino]propoxy}phenyl)-3-methyl-5-{[5-(trifluoro-methyl)pyrazin-2-yl]amino}-1,2-thiazole-4-carboxamide]: the IC50 was not below 20 µM.
For `Cc1nsc(Nc2cc(C#N)ccn2)c1C(=O)Nc1ccc(OC2CCCNC2)nc1` (stereo not shown) [Example 35, 5-[(4-Cyanopyridin-2-yl)amino]-3-methyl-N-[6-(piperidin-3-yloxy)pyridin-3-yl]-1,2-thiazole-4-carboxamide], the IC50 was not below 20 µM.
With `Cc1nsc(Nc2cnccn2)c1C(=O)Nc1ccc(OCCCNC(=O)OC(C)(C)C)nc1` [Example 47, tert-Butyl (3-{[5-({[3-methyl-5-(pyrazin-2-ylamino)-1,2-thiazol-4-yl]carbonyl}-amino)pyridin-2-yl]oxy}propyl)carbamate], the IC50 is not below 20 µM.
`Cc1nsc(Nc2cnc(C(F)(F)F)cn2)c1C(=O)Nc1ccc(OCCCNC(=O)C(F)(F)F)nc1` [Example 428, 3-Methyl-N-(6-{3-[(trifluoroacetyl)amino]propoxy}pyridin-3-yl)-5-{[5-(trifluoro-methyl)pyrazin-2-yl]amino}-1,2-thiazole-4-carboxamide]: the IC50 was more than 20 µM.
`Cc1nsc(Nc2ccc(C#N)cn2)c1C(=O)Nc1ccc(OC2CCCNC2)nc1` (stereo not shown) [Example 37, 5-[(5-Cyanopyridin-2-yl)amino]-3-methyl-N-[6-(piperidin-3-yloxy)pyridin-3-yl]-1,2-thiazole-4-carboxamide]: the IC50 is not below 20 µM.
In the case of `Cc1nsc(Nc2cnc3ccccc3n2)c1C(=O)Nc1cccc(C(=O)OC(C)(C)C)c1` [Example 49, tert-Butyl 3-({[3-methyl-5-(quinoxalin-2-ylamino)-1,2-thiazol-4-yl]carbonyl}amino)-benzoate], the IC50 is not below 20 µM.
Take `Cc1nsc(Nc2nc3c(C(F)(F)F)cccc3s2)c1C(=O)Nc1ccc(OCCO)nc1` [Example 2, N-[6-(2-Hydroxyethoxy)pyridin-3-yl]-3-methyl-5-{[4-(trifluoromethyl)-1,3-benzo-thiazol-2-yl]amino}-1,2-thiazole-4-carboxamide]: the IC50 was not below 20 µM.
For `Cc1nsc(Nc2cnc(C(F)(F)F)cn2)c1C(=O)Nc1ccc(OC[C@H]2CCN(CC(F)(F)F)C2)nc1` [Example 404, 3-Methyl-N-(6-{[(3S)-1-(2,2,2-trifluoroethyl)pyrrolidin-3-yl]methoxy}pyridin-3-yl)-5-{[5-(trifluoromethyl)pyrazin-2-yl]amino}-1,2-thiazole-4-carboxamide], the IC50 was more than 20 µM.
Regarding `Cc1nsc(Nc2ccc(C#N)cn2)c1C(=O)Nc1ccc(OC2CCCN(CC(F)(F)F)C2)nc1` (stereo not shown) [Example 40, 5-[(5-Cyanopyridin-2-yl)amino]-3-methyl-N-(6-{[1-(2,2,2-trifluoroethyl)piperidin-3-yl]oxy}pyridin-3-yl)-1,2-thiazole-4-carboxamide], the IC50 is not below 20 µM.
For the molecule `Cc1nsc(Nc2ccc(C#N)cn2)c1C(=O)Nc1ccc(Nc2ccc(F)c(F)c2)nc1` [Example 433, 5-[(5-Cyanopyridin-2-yl)amino]-N-{6-[(3,4-difluorophenyl)amino]pyridin-3-yl}-3-methyl-1,2-thiazole-4-carboxamide], the IC50 was more than 20 µM.
As to `Cc1nsc(Nc2cnc3ccccc3n2)c1C(=O)Nc1ccc(NCCN(C)C(=O)OC(C)(C)C)nc1` [Example 434, tert-Butyl methyl(2-{[5-({[3-methyl-5-(quinoxalin-2-ylamino)-1,2-thiazol-4-yl]carbonyl}amino)pyridin-2-yl]amino}ethyl)carbamate], the IC50 is > 20 µM and 19 µM.
For the molecule `Cc1nsc(Nc2nc3c(C(F)(F)F)cccc3s2)c1C(=O)Nc1ccc(OCCO)c(F)c1` [Example 4, N-[3-Fluoro-4-(2-hydroxyethoxy)phenyl]-3-methyl-5-{[4-(trifluoromethyl)-1,3-benzothiazol-2-yl]amino}-1,2-thiazole-4-carboxamide], the IC50 is not below 20 µM.
With `Cc1nsc(Nc2cnccn2)c1C(=O)Nc1ccc(OCCCN)nc1` [Example 48, N-[6-(3-Aminopropoxy)pyridin-3-yl]-3-methyl-5-(pyrazin-2-ylamino)-1,2-thiazole-4-carboxamide] the figure was not below 20 µM.
Consider `Cc1nsc(Nc2cncc(C(F)(F)F)n2)c1C(=O)Nc1ccc(OCCN(C)C(=O)OC(C)(C)C)nc1` [Example 430, tert-Butyl methyl{2-[(5-{[(3-methyl-5-{[6-(trifluoromethyl)pyrazin-2-yl]amino}-1,2-thiazol-4-yl)carbonyl]amino}pyridin-2-yl)oxy]ethyl}carbannate], for which the IC50 is more than 20 µM.
